Patent publication US20220048915A1 (SHANGHAI PHARMACEUTICALS HOLDING CO., LTD., priority 2018, published 2022)
“And” between values parts separate entries of the source, which are not always exact repeats. Equal entries are not always repeated.

Key:
[1] = Pharmacokinetic properties in mice; assay type: in vivo, ICR mice
Method: Forty-eight male ICR mice, weighing 18-22 g (provided by Shanghai Xipuerbikai Laboratory Animal Co., Ltd, Certificate No.: 20130016008116). The mice were […] for 12-16 hours before the experiment but water was allowed.
Blood samples were collected from the fundus vein of mice before and at 2, 5, 15, 30, 60, 90, 120, 240, 480, 600, and 1440 minutes of the administration, respectively.
Blood samples were collected from the fundus vein of mice before and at 5, 15, 30, 60, 90, 120, 240, 480 and 1440 minutes of administration, respectively.
2-3 time points were taken for each mouse. The mice were sacrificed at 5, 15, 30, 60 and 1440 minutes after the administration (3 mice per time point), and the brains were taken, rinsed with saline, dried on filter paper and weighed.
Blood samples were centrifuged at 8000 rpm for 5 minutes, and supernatant plasma was taken. To 50 μL of plasma samples was added 300 μL of acetonitrile containing internal standard (propranolol, 25 ng/mL) to precipitate the protein. After vortexing for 10 minutes and centrifuging at 6000 g and 4° C. for 10 minutes, the supernatant was taken and placed in a 96-well plate for determination of drug concentration in plasma by UPLC/MS-MS.

[2] = test system: TNF-α; assay: Lipopolysaccharide (LPS)-induced inflammation model in mice, TNF-α in serum by ELISA; assay type: in vivo, C57BL/6J mice
Method: Male SPF-grade C57BL/6J mice, 6-8 weeks old, provided by Shanghai Ling Chang Biotechnology Co., Ltd. Animals were housed in clean-grade plastic cages (light and dark cycle 12/12 hours, temperature 22±2° C., humidity 50±10%, pellet feed, free drinking water).
1. Mice were weighed and administered according to an administration volume of 10 mL/kg, and oral administration by gavage was given for the first time. Each mouse was administrated at an interval of 3 minutes.
2. One hour after the first administration, LPS 5 mpk was administered intraperitoneally at an administration volume of 10 mL/kg.
3. 4 hours after the first administration, a second oral administration by gavage was given according to the administration volume of 10 mL/kg.
4. 6 hours after LPS intraperitoneal injection, mice were sacrificed, serum and cerebral cortex and hippocampus were sampled. After weighing the wet weight and they were put into liquid nitrogen for quick-freezing and storage.

[3] = male, ICR, mouse, plasma, po 10 mg/kg

## O=c1ncn2nc(Oc3ccc(F)cc3F)ccc2c1-c1c(Cl)cccc1Cl [Compound I-4, 5-(2,6-dichlorophenyl)-2-(2,4-difluorophenoxy)-6H-pyrimido[1,6-b]pyridazin-6-one]
[1]
  clearance rate as fraction of that of the positive compound: 4/11
[1]; 10 mg/kg
  absorption compared with the positive compound VX-745 at the same dose: significantly higher
[1]; 10 mg/kg, 5-1440 minutes
  AUC relative to that of the positive compound: 4.8 times
[1]; iv 3 mg/kg
  Thalf (iv): 2.5 h
[1]; male, ICR, mouse, plasma, iv 3 mg/kg
  clearance: 0.4 L/h/kg
[1]; male, ICR, mouse, plasma, iv 3 mg/kg, read-out: Vss (iv)
  Vd: 1.2 L/kg
[1]; [3]
  Cmax: 3 µg/mL
  MRT: 4.4 h
  Tmax: 1.5 h
[1]; po 10 mg/kg vs iv 3 mg/kg
  BA: 36.8%
[1]; po 10 mg/kg, 5-1440 minutes
  AUClast (po): 8944 (h)*(ng/mL)
[2]; 8 mpk
  anti-inflammatory effect compared with the VX-745_8 mpk group: better anti-inflammatory effect
[2]; 8 mpk, P<0.01
  levels of TNF-α compared with the mouse inflammation model group (G2): significantly reduced
[2]; serum, individual animals, 8 mg/kg po bid interval 4 h, 6 hours after LPS 5 mpk ip
  TNF-α conc.: 11.9 pg/mL and 127.8 pg/mL and -39.4 pg/mL and 107.7 pg/mL and 92.4 pg/mL and 17.4 pg/mL and 97.1 pg/mL and -37.7 pg/mL and 86.6 pg/mL and 58.6 pg/mL and 89.4 pg/mL and 116.9 pg/mL
